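1) Cells in 96-well plates. 2) Compound, 48 h, 5 concentrations. 3) Linear interpolation between surrounding doses. 4) Unreached endpoint = highest concentration. GI50: concentration for 50% inhibition of growth.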 The source made the active and inactive calls. Cut-off read from the data, not from the text of the source: active = GI50 up to about 1.1 µM and inactive = higher.
What was measured:
Experiment in all cases: inhibition of tumour cell growth, NCI panel, 48 h
K562 = test system: K562
ACHN = test system: ACHN
NCI-H226 = test system: NCI-H226
TK-10 = test system: TK-10
RPMI-8226 = test system: RPMI-8226
OVCAR-8 = test system: OVCAR-8
OVCAR-3 = test system: OVCAR-3
OVCAR-5 = test system: OVCAR-5
A498 = test system: A498
HOP-62 = test system: HOP-62
RXF 393 = test system: RXF 393
M14 = test system: M14
786-0 = test system: 786-0
SK-MEL-2 = test system: SK-MEL-2
SK-MEL-5 = test system: SK-MEL-5
NCI-H23 = test system: NCI-H23
LOX IMVI = test system: LOX IMVI
SNB-19 = test system: SNB-19
SN12C = test system: SN12C
U-251 = test system: U-251
EKVX = test system: EKVX
NCI/ADR-RES = test system: NCI/ADR-RES
HCT-15 = test system: HCT-15
SR = test system: SR
MDA-N = test system: MDA-N
IGROV-1 = test system: IGROV-1
NCI-H522 = test system: NCI-H522
MCF7 = test system: MCF7
NCI-H460 = test system: NCI-H460
OVCAR-4 = test system: OVCAR-4
Hs-578T = test system: Hs-578T
DU-145 = test system: DU-145
HCC 2998 = test system: HCC 2998
KM12 = test system: KM12
SF-295 = test system: SF-295
UACC-62 = test system: UACC-62
HL-60 = test system: HL-60
PC-3 = test system: PC-3
COLO 205 = test system: COLO 205
MDA-MB-231 = test system: MDA-MB-231
Malme-3M = test system: Malme-3M
CAKI-1 = test system: CAKI-1
HCT-116 = test system: HCT-116
SF-268 = test system: SF-268
UO-31 = test system: UO-31
SK-OV-3 = test system: SK-OV-3
UACC-257 = test system: UACC-257
SK-MEL-28 = test system: SK-MEL-28
CCRF-CEM = test system: CCRF-CEM
A549 = test system: A549
SW-620 = test system: SW-620
MDA-MB-435 = test system: MDA-MB-435
MOLT-4 = test system: MOLT-4
HT-29 = test system: HT-29
SNB-75 = test system: SNB-75
SF-539 = test system: SF-539
T47D = test system: T47D

## CSc1nc(C)cc(N(C)c2ccccc2)n1
K562
  GI50: 44 µM (inactive)
ACHN
  GI50: 58.6 µM (inactive)
NCI-H226
  GI50: 34.5 µM (inactive)
TK-10
  GI50: 33.5 µM (inactive)
RPMI-8226
  GI50: > 100 µM (inactive)
OVCAR-8
  GI50: 34.8 µM (inactive)
OVCAR-3
  GI50: 27.3 µM (inactive)
OVCAR-5
  GI50: > 100 µM (inactive)
A498
  GI50: 50.1 µM (inactive)
HOP-62
  GI50: 45.2 µM (inactive)
RXF 393
  GI50: 31 µM (inactive)
M14
  GI50: 30.1 µM (inactive)
786-0
  GI50: 38.5 µM (inactive)
SK-MEL-2
  GI50: 40 µM (inactive)
SK-MEL-5
  GI50: 25.6 µM (inactive)
NCI-H23
  GI50: 27.9 µM (inactive)
LOX IMVI
  GI50: 21.1 µM (inactive)
SNB-19
  GI50: 85.5 µM (inactive)
SN12C
  GI50: 41.8 µM (inactive)
U-251
  GI50: 31.4 µM (inactive)
EKVX
  GI50: 37.8 µM (inactive)
NCI/ADR-RES
  GI50: 25.2 µM (inactive)
HCT-15
  GI50: 38.4 µM
SR
  GI50: 10.7 µM (inactive)
MDA-N
  GI50: 24.1 µM (inactive)
IGROV-1
  GI50: 36.9 µM (inactive)
NCI-H522
  GI50: 65.6 µM (inactive)
MCF7
  GI50: 24.9 µM (inactive)
NCI-H460
  GI50: 40.7 µM (inactive)
OVCAR-4
  GI50: > 100 µM (inactive)
Hs-578T
  GI50: 32.4 µM (inactive)
DU-145
  GI50: 58.6 µM (inactive)
HCC 2998
  GI50: > 100 µM (inactive)
KM12
  GI50: 1.73 µM (inactive)
SF-295
  GI50: 34.7 µM (inactive)
UACC-62
  GI50: 35.3 µM (inactive)
HL-60
  GI50: 32.8 µM (inactive)
PC-3
  GI50: 55.5 µM (inactive)
COLO 205
  GI50: 34.8 µM (inactive)
MDA-MB-231
  GI50: 34.8 µM (inactive)
Malme-3M
  GI50: 63.7 µM (inactive)
CAKI-1
  GI50: 33 µM (inactive)
HCT-116
  GI50: 22.9 µM (inactive)
SF-268
  GI50: 43.8 µM (inactive)
UO-31
  GI50: 5.33 µM (inactive)
SK-OV-3
  GI50: 37.6 µM (inactive)
UACC-257
  GI50: 31.6 µM (inactive)
SK-MEL-28
  GI50: 46.8 µM (inactive)
CCRF-CEM
  GI50: 38 µM (inactive)
A549
  GI50: 29 µM (inactive)
SW-620
  GI50: 54.5 µM (inactive)
MDA-MB-435
  GI50: 22.5 µM (inactive)
MOLT-4
  GI50: 29.7 µM (inactive)
HT-29
  GI50: 15.1 µM (inactive)
SNB-75
  GI50: 27.1 µM (inactive)
SF-539
  GI50: 28 µM (inactive)

## O=c1c2ccccc2nc2n1CCc1c-2[nH]c2cc3c(cc12)OCO3
K562
  GI50: > 25 µM (inactive)
ACHN
  GI50: 3.98 µM (inactive)
TK-10
  GI50: > 25 µM (inactive)
RPMI-8226
  GI50: > 25 µM (inactive)
OVCAR-8
  GI50: 5.74 µM (inactive)
OVCAR-5
  GI50: > 25 µM (inactive)
HOP-62
  GI50: 9.42 µM (inactive)
M14
  GI50: > 25 µM (inactive)
SK-MEL-5
  GI50: 13.7 µM (inactive)
T47D
  GI50: > 25 µM (inactive)
SNB-19
  GI50: 5.11 µM (inactive)
SN12C
  GI50: > 25 µM (inactive)
U-251
  GI50: 7.28 µM (inactive)
EKVX
  GI50: > 25 µM (inactive)
NCI/ADR-RES
  GI50: > 25 µM (inactive)
HCT-15
  GI50: 8.65 µM
SR
  GI50: > 25 µM (inactive)
MDA-N
  GI50: 17.6 µM (inactive)
IGROV-1
  GI50: > 25 µM (inactive)
NCI-H522
  GI50: 5.4 µM (inactive)
MCF7
  GI50: > 25 µM (inactive)
HCC 2998
  GI50: > 25 µM (inactive)
KM12
  GI50: 15.7 µM (inactive)
SF-295
  GI50: 5.55 µM (inactive)
HL-60
  GI50: > 25 µM (inactive)
PC-3
  GI50: > 25 µM (inactive)
COLO 205
  GI50: > 25 µM (inactive)
MDA-MB-231
  GI50: 9.71 µM (inactive)
HCT-116
  GI50: 3.32 µM (inactive)
SF-268
  GI50: 5.41 µM (inactive)
UO-31
  GI50: > 25 µM (inactive)
SK-OV-3
  GI50: 6.95 µM (inactive)
UACC-257
  GI50: > 25 µM (inactive)
SK-MEL-28
  GI50: > 25 µM (inactive)
SW-620
  GI50: > 25 µM (inactive)
MDA-MB-435
  GI50: 13.6 µM (inactive)
MOLT-4
  GI50: > 25 µM (inactive)
SNB-75
  GI50: 6.61 µM (inactive)
SF-539
  GI50: 5.77 µM (inactive)

— ChEMBL document CHEMBL1201862, “PubChem BioAssay data set” (2004)
